Measurements taken from patent publication US11534415B2, “Use of colchicine to inhibit tumor growth and metastases” (Murray and Poole Enterprises, LTD., priority 2018, dated 2022).

Assays:
[1] = test system: subjects with a first episode of recurrent pericarditis; conditions: actual rates at 18 months; aspirin alone or plus colchicine 1.0-2.0 mg first day then 0.5-1.0 mg/d for 6 months; cited from earlier work
[2] = test system: subjects with a first episode of acute pericarditis; conditions: at 18 months; aspirin alone or plus colchicine 1.0 to 2.0 mg first day then 0.5 to 1.0 mg/day for 3 months; p=0.004; cited from earlier work
[3] = test system: subjects with stable coronary disease; conditions: colchicine 0.5 mg/day in addition to statins and other standard secondary prevention therapies; median of 3 years; cited from earlier work
[4] = test system: commonly used tumor models; test: Example 5: anti-tumor effects of colchicine in animals (tumor models); assay type: in vivo; conditions: vs placebo control group
Method: A sufficient amount of specimen of a suitable animal species are included in this study utilizing commonly used tumor models. A therapeutically effective amount of colchicine is administered to the test animals. Placebo is administered to a control group. Tumor growth is induced in all animals.

[5] = test system: commonly used tumor cell lines with or without combination with cultivated PBMCs; test: Example 6: anti-tumor effects of colchicine in vitro; assay type: cell-based; conditions: incubation with colchicine and/or cultivation with pretreated PBMCs
Text: A suitable in vitro model for studying the anti-tumor effects of drugs is utilized for this test. Such a test may include commonly used tumor cell lines with or without combination with cultivated PBMCs.

[6] = test system: co-cultures of PBMC with either HT-29 or RKO human colon cancer cells; conditions: co-culture with HT-29 or RKO cells; cited from earlier work
[7] = test system: human lipopolysaccharide (LPS) stimulated peripheral blood mononuclear cells (PBMC); conditions: colchicine added to LPS stimulated PBMC; cited from earlier work
[8] = test system: subjects with cancer or in risk of cancer; test: Example 4: randomized observer blinded end-point trial of sustained release colchicine added to standard anti-cancer therapies; conditions: long-term low dose sustained release colchicine 0.5 mg/day vs standard therapy alone
Method: To assess the therapeutic effects of a sustained release formulation in subjects with or in subjects with an increased risk of cancer, a prospective randomized observer blinded end-point trial was conducted to determine whether adding 0.5 mg/day of colchicine to standard anti-cancer therapies inhibits, delays, or reduces tumor growth or metastases in a cancer subject.
A sufficient amount of subjects with cancer or in risk of cancer are randomized to long-term low dose sustained release colchicine or to standard therapy alone.

## CC(=O)Oc1ccccc1C(=O)O [aspirin]
[1]
  recurrence rate: 50.6%
[2]
  recurrence rate: 32.3%

## COc1cc2c(c(OC)c1OC)-c1ccc(OC)c(=O)cc1[C@@H](NC(C)=O)CC2 [colchicine, (−)-N-[(7S, 12aS)-1,2,3,10-tetramethoxy-9-oxo-5,6,7,9-tetrahydrobenzo[a]heptalen-7-yl]-acetamide]
[3]
  prevention of cardiovascular events: appeared effective for the prevention of cardiovascular events
[1]
  recurrence rate: 24.0%
[4]
  tumor growth: tumor growth is prevented and/or reduced
[5]
  growth of tumor cell lines: inhibits or reduces growth of tumor cell lines
[6]
  IL-1β production by cancer cells-stimulated PBMC: promoted cancer cells-stimulated PBMC to produce IL-1β
  release of TNF-α and IL-10: inhibit the release of tumor necrosis factor (TNF)-α and IL-10
[2]
  recurrence rate: 10.7%
[7]
  IL-1β release: increased
  TNF-α release: decreased
[8]
  cancer incidence and mortality: significantly lower cancer incidence and mortality
